Experimental data from ChEMBL document CHEMBL1139128, “Structure-activity relationship analysis of a novel necroptosis inhibitor, Necrostatin-5” (Bioorg Med Chem Lett, 2007).
Active and inactive are the calls of the source. The rule behind the calls is not given here.

Tested on: Jurkat
Assay: Inhibition of TNF-alpha-induced necroptosis in FADD-deficient Jurkat T cells
Assay type: functional, cell-based
Parameters: concentration or dose not given beside the values
Conditions: for EC50: Jurkat

CSc1nc2sc3c(c2c(=O)n1-c1ccc(Cl)c(Cl)c1)CCCC3
Activity (Homo sapiens): inactive

N#CCSc1nc2sc3c(c2c(=O)n1-c1ccccc1)CCCC3
Activity (Homo sapiens): inactive

CSc1nc2sc3c(c2c(=O)n1-c1ccc(F)cc1)CCCCC3
Activity (Homo sapiens): inactive

CCc1c(C)sc2nc(SC)n(-c3ccc4c(c3)OCO4)c(=O)c12
Activity (Homo sapiens): inactive

CCCSc1nc2sc3c(c2c(=O)n1-c1ccc(OC)cc1)CCC3
Activity (Homo sapiens): inactive

CCc1sc2nc(SCC#N)n(-c3ccc(OC)cc3)c(=O)c2c1C
Activity: 86.8% | EC50 (Homo sapiens): 5.26 µM

COc1ccc(-n2c(SCCO)nc3sc4c(c3c2=O)CCC4)cc1
Activity: 100% | EC50 (Homo sapiens): 7.14 µM

CSc1nc2sc3ccccc3c2c(=O)n1-c1ccc(F)cc1
EC50 (Homo sapiens): 3.06 µM

CCCCCSc1nc2sc3c(c2c(=O)n1-c1ccc(OC)cc1)CCCC3
Activity (Homo sapiens): inactive

CSc1nc2sc(C)c(C)c2c(=O)n1-c1ccc(C)c(C)c1
Activity (Homo sapiens): inactive

COc1ccc(-n2c(SCC(C)O)nc3sc4c(c3c2=O)CCCC4)cc1 (configuration not stated)
Activity (Homo sapiens): inactive

C#CCSc1nc2sccc2c(=O)n1-c1ccc(OC)cc1
Activity (Homo sapiens): inactive

CCCSc1nc2sc3c(c2c(=O)n1-c1ccc(OC)cc1)CCCC3
Activity (Homo sapiens): inactive

C#CCSc1nc2sc(CC)c(C)c2c(=O)n1-c1ccc(OC)cc1
Activity (Homo sapiens): inactive

N#CCSc1nc2sc3c(c2c(=O)n1-c1ccc(OCc2ccccc2)cc1)CCCC3
Activity (Homo sapiens): inactive

COc1ccc(-n2c(SCC(=O)O)nc3sc(C)c(C)c3c2=O)cc1
Activity (Homo sapiens): inactive

C#CCSc1nc2scc(C)c2c(=O)n1-c1ccc(OC)cc1
Activity (Homo sapiens): inactive

CSc1ccc(-n2c(SCC#N)nc3sc4c(c3c2=O)CCCC4)cc1
Activity: 70% | EC50 (Homo sapiens): 2.33 µM

CSc1nc2sc(C)c(C)c2c(=O)n1-c1ccc(N(C)C)cc1
Activity (Homo sapiens): inactive

CCN1CCc2sc3nc(SC)n(-c4ccccc4)c(=O)c3c2C1
Activity (Homo sapiens): inactive

CCOc1ccc(-n2c(SCC#N)nc3sc4c(c3c2=O)CCCC4)cc1
Activity: 83.8% | EC50 (Homo sapiens): 0.55 µM

COc1ccc(-n2c(SCC#N)nc3sc4c(c3c2=O)CC(C)CC4)cc1OC (configuration not stated)
Activity (Homo sapiens): inactive

COc1ccc(-n2c(SCC#N)nc3c(c2=O)C2CCCCCC2S3)cc1 (configuration not stated)
Activity: 83% | EC50 (Homo sapiens): 0.96 µM

CCSc1nc2sc(CC)c(C)c2c(=O)n1-c1ccc(OC)cc1
Activity (Homo sapiens): inactive

CCCCCSc1nc2sc3c(c2c(=O)n1-c1ccc(OC)cc1)CCC3
Activity (Homo sapiens): inactive

N#CCSc1nc2sc3c(c2c(=O)n1-c1ccc(OC(F)(F)F)cc1)CCCC3
Activity (Homo sapiens): inactive

CCc1sc2nc(SCC#N)n(-c3ccc(F)cc3)c(=O)c2c1C
Activity (Homo sapiens): inactive

N#CCSc1nc2sc3ccccc3c2c(=O)n1-c1ccc2c(c1)OCO2
Activity: 100% | EC50 (Homo sapiens): 0.27 µM

CSc1nc2sc3c(c2c(=O)n1-c1ccc(OCc2ccccc2)cc1)CCCC3
Activity (Homo sapiens): inactive

COc1ccc(-n2c(SC)nc3sc4c(c3c2=O)CCCC4)cc1OC
Activity: 54.5% | EC50 (Homo sapiens): 16.7 µM

Cc1sc2nc(SCC#N)n(-c3ccc4c(c3)OCO4)c(=O)c2c1C
Activity: 100% | EC50 (Homo sapiens): 1.65 µM

N#CCSc1nc2sc3c(c2c(=O)n1-c1ccc2c(c1)OCCO2)CCCC3
Activity: 100% | EC50 (Homo sapiens): 0.22 µM

COc1ccc(-n2c(SCCC#N)nc3sc(C)c(C)c3c2=O)cc1
Activity (Homo sapiens): inactive

COc1ccc(-n2c(S(C)(=O)=O)nc3sc4c(c3c2=O)CCCC4)cc1
Activity (Homo sapiens): inactive

COc1ccc(-n2c(SC)nc3sc4c(c3c2=O)CC(C)CC4)cc1 (configuration not stated)
Activity (Homo sapiens): inactive

N#CCSc1nc2sc3c(c2c(=O)n1-c1ccc(OC(F)(F)F)cc1)CCCCC3
Activity (Homo sapiens): inactive

C#CCSc1nc2sc(C)c(C)c2c(=O)n1-c1ccc(OC)cc1
Activity: 90.3% | EC50 (Homo sapiens): 4.86 µM
